# US9656988B2 (Pharmacyclics LLC, priority 2013, dated 2017)
# Like-named read-outs stand apart in the source and are kept apart here.
# Target: BTK (Homo sapiens (Human), UniProt Q06187)
# Assay: Btk in vitro inhibitory activity (one of Method A TR-FRET, Method B electrophoretic mobility shift, Method C radiometric filter binding)
# Type: biochemical
# [1] = determined using one of the methods of Example 355a, 355b and 355c, read-out: BTK IC50
# BTK, sequence (Q06187 whole entry): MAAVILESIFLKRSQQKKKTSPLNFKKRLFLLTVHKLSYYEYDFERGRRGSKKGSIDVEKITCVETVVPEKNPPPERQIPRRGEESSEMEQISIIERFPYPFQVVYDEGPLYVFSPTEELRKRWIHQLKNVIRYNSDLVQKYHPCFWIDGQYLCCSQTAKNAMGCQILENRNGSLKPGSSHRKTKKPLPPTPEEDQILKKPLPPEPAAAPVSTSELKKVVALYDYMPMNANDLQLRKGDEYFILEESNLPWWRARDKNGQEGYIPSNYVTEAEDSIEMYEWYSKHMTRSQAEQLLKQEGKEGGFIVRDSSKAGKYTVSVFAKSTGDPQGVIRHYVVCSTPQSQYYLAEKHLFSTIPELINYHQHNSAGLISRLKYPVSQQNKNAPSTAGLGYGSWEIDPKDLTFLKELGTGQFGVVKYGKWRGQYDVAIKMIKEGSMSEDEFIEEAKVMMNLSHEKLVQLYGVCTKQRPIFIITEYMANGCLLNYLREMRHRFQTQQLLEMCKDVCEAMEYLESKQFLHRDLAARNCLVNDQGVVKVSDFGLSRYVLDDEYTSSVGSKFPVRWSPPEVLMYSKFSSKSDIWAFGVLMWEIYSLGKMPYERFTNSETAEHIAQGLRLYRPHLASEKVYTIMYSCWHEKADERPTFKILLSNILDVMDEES
IC50 (read-out: Btk (IC50)) [nM],Structure (SMILES),IC50 [1] [nM],IC50 [nM]
,"NC(=O)c1nnc(N2CCC[C@@H](N3Cc4ccccc4C3=O)C2)nc1Nc1ccc(C(=O)N2CCOCC2)cc1 [Example 104, (R)-5-(4-(morpholine-4-carbonyl)phenylamino)-3-(3-(1-oxoisoindolin-2-yl)piperidin-1-yl)-1,2,4-triazine-6-carboxamide]",10 to 100,
,"CC#CC(=O)N1CCC[C@@H](Nc2nnc(C(N)=O)c(Nc3ccc(S(C)(=O)=O)cc3)n2)C1 [Example 105, (R)-3-(1-but-2-ynoylpiperidin-3-ylamino)-5-(4-(methylsulfonyl)phenylamino)-1,2,4-triazine-6-carboxamide]",< 10,
,"CN(C)C/C=C/C(=O)N1CCC[C@@H](Nc2nnc(C(N)=O)c(Nc3ccc(S(C)(=O)=O)cc3)n2)C1 [Example 106, (R,E)-3-(1-(4-(dimethylamino)but-2-enoyl)piperidin-3-ylamino)-5-(4-(methylsulfonyl)phenylamino)-1,2,4-triazine-6-carboxamide]",< 10,
,"CN(C/C=C/C(=O)N1CCC[C@@H](Nc2nnc(C(N)=O)c(Nc3ccc(S(C)(=O)=O)cc3)n2)C1)C1CC1 [Example 107, (R,E)-3-(1-(4-(cyclopropyl(methyl)amino)but-2-enoyl)piperidin-3-ylamino)-5-(4-(methylsulfonyl)phenylamino)-1,2,4-triazine-6-carboxamide]",< 10,
,"NC(=O)c1nnc(N2CCC[C@@H](NC(=O)N3CCCCC3)C2)nc1Nc1cnc2ccccc2c1 [Example 108, (R)-3-(3-(piperidine-1-carboxamido)piperidin-1-yl)-5-(quinolin-3-ylamino)-1,2,4-triazine-6-carboxamide]",100 to 1000,
,"NC(=O)c1nnc(N2CCC[C@@H](NC(=O)N3CCCCC3)C2)nc1Nc1ccc2cccnc2c1 [Example 109, (R)-3-(3-(piperidine-1-carboxamido)piperidin-1-yl)-5-(quinolin-7-ylamino)-1,2,4-triazine-6-carboxamide]",100 to 1000,
10 to 100,"CCOc1ccc(Nc2nc(N3CCC[C@@H](NC(=O)c4ccc(OC)cc4)C3)cnc2C(N)=O)cc1 [Example 111, (R)-3-(4-ethoxyphenylamino)-5-(3-(4-methoxybenzamido)piperidin-1-yl)pyrazine-2-carboxamide]",10 to 100,
10 to 100,"COCCOc1ccc(Nc2nc(N3CCC[C@@H](NC(=O)c4ccc(OC)cc4)C3)cnc2C(N)=O)cc1 [Example 112, (R)-5-(3-(4-methoxybenzamido)piperidin-1-yl)-3-(4-(2-methoxyethoxy)phenylamino)pyrazine-2-carboxamide]",10 to 100,
,"CCOCCOc1ccc(Nc2nc(N3CCC[C@@H](NC(=O)c4ccc(OC)cc4)C3)cnc2C(N)=O)cc1 [Example 113, (R)-3-(4-(2-ethoxyethoxy)phenylamino)-5-(3-(4-methoxybenzamido)piperidin-1-yl)pyrazine-2-carboxamide]",10 to 100,
,"COc1ccc(C(=O)N[C@@H]2CCCN(c3cnc(C(N)=O)c(Nc4ccc(OCCN(C)C)cc4)n3)C2)cc1 [Example 115, (R)-3-(4-(2-(dimethylamino)ethoxy)phenylamino)-5-(3-(4-methoxybenzamido)piperidin-1-yl)pyrazine-2-carboxamide]",< 10,
,"COc1ccc(C(=O)N[C@@H]2CCCN(c3cnc(C(N)=O)c(Nc4ccc(OCC[N+](C)(C)[O-])cc4)n3)C2)cc1 [Example 116, (R)-2-(4-(3-carbamoyl-6-(3-(4-methoxybenzamido)piperidin-1-yl)pyrazin-2-ylamino)phenoxy)-N,N-dimethylethanamine oxide]",10 to 100,
,"COc1ccc(C(=O)N[C@@H]2CCCN(c3cnc(C(N)=O)c(Nc4ccc(S(C)(=O)=O)cc4)n3)C2)cc1 [Example 117, (R)-5-(3-(4-methoxybenzamido)piperidin-1-yl)-3-(4-(methylsulfonyl)phenylamino)pyrazine-2-carboxamide]",< 10,
10 to 100,"COc1ccc(C(=O)N[C@@H]2CCCN(c3cnc(C(N)=O)c(Nc4ccc(C(=O)N(C)C)cc4)n3)C2)cc1 [Example 118, (R)-3-(4-(dimethylcarbamoyl)phenylamino)-5-(3-(4-methoxybenzamido)piperidin-1-yl)pyrazine-2-carboxamide]",10 to 100,
,"COc1ccc(C(=O)N[C@@H]2CCCN(c3cnc(C(N)=O)c(Nc4cc(C)ns4)n3)C2)cc1 [Example 119, (R)-5-(3-(4-methoxybenzamido)piperidin-1-yl)-3-(3-methylisothiazol-5-ylamino)pyrazine-2-carboxamide]",10 to 100,
10 to 100,"COc1ccc(C(=O)N[C@@H]2CCCN(c3cnc(C(N)=O)c(Nc4ccc5ncccc5c4)n3)C2)cc1 [Example 120, (R)-5-(3-(4-methoxybenzamido)piperidin-1-yl)-3-(quinolin-6-ylamino)pyrazine-2-carboxamide]",10 to 100,
10 to 100,"COc1ccc(C(=O)N[C@@H]2CCCN(c3cnc(C(N)=O)c(Nc4ccc5ncsc5c4)n3)C2)cc1 [Example 121, (R)-3-(benzo[d]thiazol-6-ylamino)-5-(3-(4-methoxybenzamido)piperidin-1-yl)pyrazine-2-carboxamide]",10 to 100,
,"COc1ccc(C(=O)N[C@@H]2CCCN(c3cnc(C(N)=O)c(Nc4ccc(C5CCOCC5)cc4)n3)C2)cc1 [Example 122, (R)-5-(3-(4-methoxybenzamido)piperidin-1-yl)-3-(4-(tetrahydro-2H-pyran-4-yl)phenylamino)pyrazine-2-carboxamide]",< 10,
,"COc1ccc(C(=O)N[C@@H]2CCCN(c3cnc(C(N)=O)c(Nc4ccc(N5CCOCC5)cc4)n3)C2)cc1 [Example 123, (R)-5-(3-(4-methoxybenzamido)piperidin-1-yl)-3-(4-morpholinophenylamino)pyrazine-2-carboxamide]",< 10,
,"COc1ccc(C(=O)N[C@@H]2CCCN(c3cnc(C(N)=O)c(Nc4ccc(N5CCOCC5)nc4)n3)C2)cc1 [Example 124, (R)-5-(3-(4-methoxybenzamido)piperidin-1-yl)-3-(6-morpholinopyridin-3-ylamino)pyrazine-2-carboxamide]",< 10,10 to 100
,"COc1ccc(C(=O)N[C@@H]2CCCN(c3cnc(C(N)=O)c(Nc4ccc(N5CCOCC5)c(F)c4)n3)C2)cc1 [Example 125, (R)-3-(3-fluoro-4-morpholinophenylamino)-5-(3-(4-methoxybenzamido)piperidin-1-yl)pyrazine-2-carboxamide]",< 10,
,"COc1ccc(C(=O)N[C@@H]2CCCN(c3cnc(C(N)=O)c(Nc4ccc(N5CCOCC5=O)cc4)n3)C2)cc1 [Example 126, (R)-5-(3-(4-methoxybenzamido)piperidin-1-yl)-3-(4-(3-oxomorpholino)phenylamino)pyrazine-2-carboxamide]",< 10,10 to 100
10 to 100,"COc1ccc(C(=O)N[C@@H]2CCCN(c3cnc(C(N)=O)c(Nc4ccc(-n5ccccc5=O)cc4)n3)C2)cc1 [Example 127, (R)-5-(3-(4-methoxybenzamido)piperidin-1-yl)-3-(4-(2-oxopyridin-1(2H)-yl)phenylamino)pyrazine-2-carboxamide]",10 to 100,

Structure (SMILES),IC50 (read-out: Btk (IC50)) [nM],IC50 [1] [nM],IC50 [nM]
"CCCn1nnc2cc(C(=O)N[C@@H]3CCCN(c4nnc(C(N)=O)c(Nc5ccc(C(=O)N6CCOCC6)cc5)n4)C3)ccc21 [Example 103, (R)—N-(1-(6-carbamoyl-5-(4-(morpholine-4-carbonyl)phenylamino)-1,2,4-triazin-3-yl)piperidin-3-yl)-1-propyl-1H-benzo[d][1,2,3]triazole-5-carboxamide]",10 to 100,< 10,
